Measured values published in US20180371044A1, “PEPTIDOMIMETIC MACROCYCLES” (Aileron Therapeutics, Inc., priority 2015, published 2018).
Where a SMILES comes first, the peptide text is derived from it. Bridges are numbered along the chain shown (N, C = ends). [ ]: non-standard residue; d: D form. NMeY = CN[C@@H](Cc1ccc(O)cc1)C(=O)O; R8 = C=CCCCCCC[C@@](C)(N)C(=O)O; Cit = NC(=O)NCCC[C@H](N)C(=O)O; S5 = C=CCCC[C@](C)(N)C(=O)O; Nle = CCCC[C@H](N)C(=O)O; Aib = CC(C)(N)C(=O)O

Target: T1, human GHRH receptor (hGHRHR) (Homo sapiens, UniProt Q02643)
T1 construct: expressed in transfected cells; host or cells: Human 293 cells
T1 sequence (Q02643 23-423): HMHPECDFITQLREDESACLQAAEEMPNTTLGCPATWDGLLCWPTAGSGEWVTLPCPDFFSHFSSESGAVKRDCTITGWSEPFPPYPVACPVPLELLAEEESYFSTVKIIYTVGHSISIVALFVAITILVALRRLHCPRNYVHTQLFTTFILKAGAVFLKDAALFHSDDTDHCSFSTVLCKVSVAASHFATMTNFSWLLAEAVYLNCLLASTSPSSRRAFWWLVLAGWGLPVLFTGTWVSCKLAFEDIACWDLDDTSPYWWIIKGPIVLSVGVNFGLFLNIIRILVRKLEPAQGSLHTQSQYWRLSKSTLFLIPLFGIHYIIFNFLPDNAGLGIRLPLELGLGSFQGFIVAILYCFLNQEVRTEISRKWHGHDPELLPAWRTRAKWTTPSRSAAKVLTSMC
Test: GHRHR agonism measured by cAMP (HTRF) in human 293 cells expressing hGHRHR;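 note: receptor expressed transiently or stably, cells stimulated in serum-free medium, EC50 from a non-linear dose-response fit, maximal response defined by reference GHRH stimulation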
Format: cell-based
Conditions: 30 min at RT

| Structure (SMILES) | EC50 [nM] |
| --- | --- |
| CCCC[C@H](NC(=O)[C@@H](NC(=O)[C@H](CC(=O)O)NC(=O)[C@H](CCC(N)=O)NC(=O)[C@H](CC(C)C)NC(=O)C(C)(C)NC(=O)[C@H](CCCCN)NC(=O)[C@H](CCCNC(=N)N)NC(=O)[C@]1(C)CCCC=CCCCCCC[C@@](C)(NC(=O)[C@H](CCCNC(=N)N)NC(=O)[C@H](Cc2ccc(O)cc2)NC(=O)[C@H](CO)NC(=O)[C@H](C)NC(=O)[C@@H](NC(=O)[C@H](Cc2ccccc2)NC(=O)[C@@H](NC(=O)[C@H](C)NC(=O)[C@H](CC(=O)O)NC(=O)[C@H](C)NC(=O)[C@H](Cc2ccc(O)cc2)NC)[C@@H](C)CC)[C@@H](C)O)C(=O)N[C@@H](C(C)C)C(=O)N[C@@H](CC(C)C)C(=O)N[C@@H](C)C(=O)N[C@@H](CCC(N)=O)C(=O)N[C@@H](CC(C)C)C(=O)N[C@@H](CO)C(=O)N1)[C@@H](C)CC)C(=O)N[C@@H](CO)C(=O)N[C@@H](CCCNC(=N)N)C(N)=O [SP-65] (H-[NMeY]ADAIFTASYR[R8]VLAQLS[S5]RK[Aib]LQDI[Nle]SR-NH2; staple 12-19) | 25 to 50 |
| CCCC[C@H](NC(=O)[C@@H](NC(=O)[C@H](CC(=O)O)NC(=O)[C@H](CCC(N)=O)NC(=O)[C@H](CC(C)C)NC(=O)[C@H](C)NC(=O)[C@]1(C)CCCC=CCCCCCC[C@@](C)(NC(=O)[C@@H](NC(=O)[C@H](CCCCN)NC(=O)[C@H](CCCNC(=N)N)NC(=O)[C@H](Cc2ccc(O)cc2)NC(=O)[C@H](CO)NC(=O)[C@H](C)NC(=O)[C@@H](NC(=O)[C@H](Cc2ccccc2)NC(=O)[C@@H](NC(=O)[C@H](C)NC(=O)[C@H](CC(=O)O)NC(=O)[C@H](C)NC(=O)[C@H](Cc2ccc(O)cc2)NC)[C@@H](C)CC)[C@@H](C)O)C(C)C)C(=O)N[C@@H](C)C(=O)N[C@@H](CCC(N)=O)C(=O)N[C@@H](CC(C)C)C(=O)N[C@@H](CO)C(=O)N[C@@H](C)C(=O)N[C@@H](CCCNC(=N)N)C(=O)N1)[C@@H](C)CC)C(=O)N[C@@H](CO)C(=O)N[C@@H](CCCNC(=N)N)C(N)=O [SP-26] (H-[NMeY]ADAIFTASYRKV[R8]AQLSAR[S5]ALQDI[Nle]SR-NH2; staple 14-21) | 10 to 25 |
| CCCC[C@H](NC(=O)[C@@H](NC(=O)[C@H](CC(=O)O)NC(=O)C(C)(C)NC(=O)[C@H](CC(C)C)NC(=O)[C@H](C)NC(=O)[C@H](CCCCN)NC(=O)[C@H](CCCNC(=N)N)NC(=O)[C@H](C)NC(=O)C(C)(C)NC(=O)[C@H](CC(C)C)NC(=O)[C@H](CCC(N)=O)NC(=O)[C@H](C)NC(=O)[C@H](CC(C)C)NC(=O)[C@@H](NC(=O)[C@H](CCCCN)NC(=O)[C@H](CCCNC(=N)N)NC(=O)[C@H](Cc1ccc(O)cc1)NC(=O)[C@H](CO)NC(=O)C(C)(C)NC(=O)[C@@H](NC(=O)[C@H](Cc1ccccc1)NC(=O)[C@@H](NC(=O)[C@H](C)NC(=O)[C@H](CC(=O)O)NC(=O)[C@H](C)NC(=O)[C@H](Cc1ccc(O)cc1)NC)[C@@H](C)CC)[C@@H](C)O)C(C)C)[C@@H](C)CC)C(=O)N[C@@H](CO)C(=O)N[C@@H](CCCNC(=N)N)C(N)=O [SP-55] (H-[NMeY]ADAIFT[Aib]SYRKVLAQL[Aib]ARKAL[Aib]DI[Nle]SR-NH2) | 1 to 10 |
| CCCC[C@H](NC(=O)[C@@H](NC(=O)[C@H](CC(=O)O)NC(=O)[C@H](CCC(N)=O)NC(=O)[C@H](CC(C)C)NC(=O)[C@H](C)NC(=O)[C@H](CCCCN)NC(=O)[C@H](CCCNC(=N)N)NC(=O)[C@H](C)NC(=O)[C@H](CO)NC(=O)[C@H](CC(C)C)NC(=O)[C@H](CCC(N)=O)NC(=O)[C@H](C)NC(=O)[C@H](CC(C)C)NC(=O)[C@@H](NC(=O)[C@H](CCCCN)NC(=O)[C@H](CCCNC(N)=O)NC(=O)[C@H](Cc1ccc(O)cc1)NC(=O)[C@H](CO)NC(=O)[C@H](C)NC(=O)[C@@H](NC(=O)[C@H](Cc1ccccc1)NC(=O)[C@@H](NC(=O)[C@H](C)NC(=O)[C@H](CC(=O)O)NC(=O)[C@H](C)NC(=O)[C@H](Cc1ccc(O)cc1)NC)[C@@H](C)CC)[C@@H](C)O)C(C)C)[C@@H](C)CC)C(=O)N[C@@H](CO)C(=O)N[C@@H](CCCNC(=N)N)C(N)=O [SP-47] (H-[NMeY]ADAIFTASY[Cit]KVLAQLSARKALQDI[Nle]SR-NH2) | ≤ 1 |
